Ends that are not written are not given here.
B1: Cholecystokinin (peptide, UniProt P06307 21-115, looked up)
Cholecystokinin: QPVPPADPAGSGLQRAEEAPRRQLRVSQRTDGESRAHLGALLARYIQQARKAPSGRMSIVKNLQNLDPSHRISDRDYMGWMDFGRRSAEEYEYPS
modifications: Cholecystokinin
notes: hormone that suppresses appetite when administered with or without gastric distension
B2: Ciliary neuro-trophic factor (protein, UniProt P26441 1-200, looked up)
Ciliary neurotrophic factor: MAFTEHSPLTPHRRDLCSRSIWLARKIRSDLTALTESYVKHQGLNKNINLDSADGMPVASTDQWSELTEAERLQENLQAYRTFHVLLARLLEDQQVHFTPTEGDFHQAIHTLLLQVAAFAYQIEELMILLEYKIPRNEADGMPINVGDGGLFEKKLWGLKVLQELSQWTVRSIHDLRFISSHQTGIPARGSHYIANNKKM

Assay: Patient examples: laparoscopic gastric band releasing an active agent, with weight loss, appetite and blood sugar control reported
Format: in vivo, human
Conditions: 322 pounds; for weight lost by the patient: 5'11", within 12 months; for weight lost by the patient / appetite as reported by the patient: gastric band containing the agent, released to a goal plasma concentration over 3-24 months
From the text: (§1) A patient, having a body weight of 322 pounds and a height of 5′11″, complains to their physician that they have tried unsuccessfully to lose weight over the past 15 years and is concerned about the effect their excess weight may have on their health. […] A reservoir containing glucagon like peptide 1 (GLP-1), according to any of the embodiments of this application may also be utilized.
as §1, with “oxyntomodulin (OXM),” for “glucagon like peptide 1 (GLP-1),”, “utilized. An injection, liquid, pill, spray, inhalant, patch, or oral substance such as a gum containing oxyntomodulin (OXM) may also be used.” for “utilized.”
A patient, having a body weight of 322 pounds and a height of 5′11″, complains to their physician that they have tried unsuccessfully to lose weight over the past 15 years and is concerned about the effect their excess weight may have on their health.
as §1, with “Pancreatic Peptide (PP),” for “glucagon like peptide 1 (GLP-1),”, “utilized. An injection, liquid, pill, spray, inhalant, patch, or oral substance such as a gum containing Pancreatic Peptide (PP) may also be used.” for “utilized.”
as §1, with “Insulin,” for “glucagon like peptide 1 (GLP-1),”, “utilized. An injection, liquid, pill, spray, inhalant, patch, or oral substance such as a gum containing Insulin may also be used.” for “utilized.”
as §1, with “Leptin,” for “glucagon like peptide 1 (GLP-1),”, “utilized. An injection, liquid, pill, spray, inhalant, patch, or oral substance such as a gum containing Leptin may also be used. […] In the case of a female patient the goal plasma concentrations would be [10-20 ng/mL]p.” for “utilized.”
as §1, with “Amylin,” for “glucagon like peptide 1 (GLP-1),”, “utilized. An injection, liquid, pill, spray, inhalant, patch, or oral substance such as a gum containing Amylin may also be used.” for “utilized.”
as §1, with “Cholecystokinin (CCK),” for “glucagon like peptide 1 (GLP-1),”, “utilized. An injection, liquid, pill, spray, inhalant, patch, or oral substance such as a gum containing Cholecystokinin (CCK) may also be used.” for “utilized.”

| Molecule | weight lost by the patient [pounds] | appetite as reported by the patient | blood sugar control as reported by the patient (gastric band containing Insulin, released to plasma concentrations of 5-30 μU/mL over 3-24 months) |
| --- | --- | --- | --- |
| Pancreatic Peptide (APLEPVYPGDNATPEQMAQYAADLRRYINMLTRPRY; ends and bridges not checked; UniProt P01298 30-65, looked up) [PP, satiety inducing peptide hormone] | 58 | marked suppression of appetite |  |
| glucagon like peptide 1 (HAEGTFTSDVSSYLEGQAAKEFIAWLVKGR; ends and bridges not checked; UniProt P01275 98-127, looked up) [GLP-1, satiety inducing peptide hormone] | 58 | marked suppression of appetite |  |
| oxyntomodulin [OXM] | 58 | marked suppression of appetite |  |
| Insulin |  |  | euglycemic effects, or better control by their body of blood sugars |
| PYY: satiety inducing peptide hormone [Peptide Y-Y] | 58 | marked suppression of appetite |  |
| Amylin (KCNTATCATQRLANFLVHSSNNFGAILSSTNVGSNTY; not fully specified (C-terminus, bridges); cysteine pairing not given here; UniProt P10997 34-70, looked up) [satiety inducing peptide hormone] | 58 | marked suppression of appetite |  |
| Cocaine-Amphetamine Regulated Transcript [CART] | 58 | marked suppression of appetite |  |
| Leptin | 58 | marked suppression of appetite |  |
| B1 | 58 | marked suppression of appetite |  |
| B2 | 58 | marked suppression of appetite |  |
